Earlier results in patent US12434072B2, “Methods and systems for neural stimulation via visual, auditory and peripheral nerve stimulations” (Cognito Therapeutics, Inc., priority 2016, dated 2025).

Columns and labels:
[1] = human clinical trials; low (tracer) doses
[2] = 70 kg adult

## CNc1ccc(/C=C/c2ccc(OCCOCCOCC[18F])nc2)cc1 [18F-AV-45]
[1]
  Most common adverse events: headache, injection site reactions (injection site rash, extravasation, hemorrhage, irritation and puncture site hematoma), musculoskeletal pain, fatigue, and nausea
[2]
  Estimated absorbed radiation dose, Adrenals: 0.05 rad/mCi
  Estimated absorbed radiation dose, Brain: 0.037 rad/mCi
  Estimated absorbed radiation dose, Breasts: 0.023 rad/mCi
  Estimated absorbed radiation dose, Gallbladder Wall: 0.529 rad/mCi
  Estimated absorbed radiation dose, Heart Wall: 0.048 rad/mCi
  Estimated absorbed radiation dose, Kidneys: 0.048 rad/mCi
  Estimated absorbed radiation dose, Liver: 0.238 rad/mCi
  Estimated absorbed radiation dose, Lower Large Intestine Wall: 0.103 rad/mCi
  Estimated absorbed radiation dose, Lungs: 0.032 rad/mCi
  Estimated absorbed radiation dose, Muscle: 0.032 rad/mCi
  Estimated absorbed radiation dose, Ovaries: 0.065 rad/mCi
  Estimated absorbed radiation dose, Pancreas: 0.053 rad/mCi
  Estimated absorbed radiation dose, Red marrow: 0.053 rad/mCi
  Estimated absorbed radiation dose, Skin: 0.022 rad/mCi
  Estimated absorbed radiation dose, Small Intestine: 0.242 rad/mCi
  Estimated absorbed radiation dose, Spleen: 0.033 rad/mCi
  Estimated absorbed radiation dose, Testes: 0.025 rad/mCi
  Estimated absorbed radiation dose, Thymus: 0.027 rad/mCi
  Estimated absorbed radiation dose, Thyroid: 0.025 rad/mCi
  Estimated absorbed radiation dose, Total Body: 0.043 rad/mCi
  Estimated absorbed radiation dose, Upper Large Intestine Wall: 0.276 rad/mCi
  Estimated absorbed radiation dose, Urinary bladder wall: 0.1 rad/mCi
  Estimated absorbed radiation dose, Uterus: 0.058 rad/mCi
[2]; Effective Dose
  Effective Dose: 0.069 rad/mCi

## OC[C@H]1O[C@@H](O)[C@H]([18F])[C@@H](O)[C@@H]1O [FDG]
[2]
  Critical organ for radiation dose: urinary bladder wall, followed by heart, spleen and pancreas
  Estimated absorbed radiation dose, Adrenals: 0.048 rad/mCi
  Estimated absorbed radiation dose, Brain: 0.07 rad/mCi
  Estimated absorbed radiation dose, Breasts: 0.034 rad/mCi
  Estimated absorbed radiation dose, Gallbladder Wall: 0.049 rad/mCi
  Estimated absorbed radiation dose, Heart Wall: 0.22 rad/mCi
  Estimated absorbed radiation dose, Kidneys: 0.074 rad/mCi
  Estimated absorbed radiation dose, Liver: 0.058 rad/mCi
  Estimated absorbed radiation dose, Lower Large Intestine Wall: 0.051 rad/mCi
  Estimated absorbed radiation dose, Lungs: 0.064 rad/mCi
  Estimated absorbed radiation dose, Muscle: 0.039 rad/mCi
  Estimated absorbed radiation dose, Ovaries: 0.053 rad/mCi
  Estimated absorbed radiation dose, Pancreas: 0.096 rad/mCi
  Estimated absorbed radiation dose, Red marrow: 0.047 rad/mCi
  Estimated absorbed radiation dose, Skin: 0.03 rad/mCi
  Estimated absorbed radiation dose, Small Intestine: 0.047 rad/mCi
  Estimated absorbed radiation dose, Spleen: 0.14 rad/mCi
  Estimated absorbed radiation dose, Testes: 0.041 rad/mCi
  Estimated absorbed radiation dose, Thymus: 0.044 rad/mCi
  Estimated absorbed radiation dose, Thyroid: 0.039 rad/mCi
  Estimated absorbed radiation dose, Total Body: 0.043 rad/mCi
  Estimated absorbed radiation dose, Upper Large Intestine Wall: 0.046 rad/mCi
  Estimated absorbed radiation dose, Urinary bladder wall: 0.32 rad/mCi
  Estimated absorbed radiation dose, Uterus: 0.062 rad/mCi
